We go through four compounds from paper PMC7129073 (Clinical Microbiology and Infection, 2015).

Values after ≈ are worked out from the molar mass of the structure shown. “Also recorded” adds a separate entry of the source. Marks after values point to notes of the source that are not given here. A value given as a limit tells only on which side of the number the result lay.

For one assay, the system named is S. progenies. Put plainly: MIC, NCCLS methods. It is filed as cell-based. The settings on record: Streptococcus pyogenes.
In a further assay the test system is S. pneumoniae. In words: MIC, NCCLS methods. It is filed as cell-based. The settings on record: Streptococcus pneumoniae.
The test system of another assay is H. influenzae. In words: MIC, NCCLS methods. It is filed as cell-based. The settings on record: Haemophilus influenzae.
Assay [1] deals with E. faecalis. Put plainly: MIC, NCCLS methods. The class given is cell-based. The settings on record: Enterococcus faecalis.
The subject of a further assay is A. haemolyticum. In words: MIC, NCCLS methods. It is filed as cell-based. The settings on record: N=9.
Another assay relates to M. catarrhalis. In words: MIC, NCCLS methods. It is filed as cell-based. The settings on record: Moraxella catarrhalis.
Assay [2] relates to methicillin resistant Staphylococcus aureus. Put plainly: NCCLS agar dilution MIC. The class given is cell-based. The settings on record: Staphylococcus aureus. (In agar dilution the substance is mixed into plates at graded concentrations.)
The subject of a further assay is H. parainfluenzae. In words: MIC, NCCLS methods. The settings on record: Haemophilus parainfluenzae. The class given is cell-based.
For assay [3], the system named is E. faecium. In words: MIC, NCCLS methods. It is filed as cell-based. The settings on record: Enterococcus faecium.
Another assay has as its system N meningitidis. Put plainly: MIC, NCCLS methods. The class given is cell-based.
The test system of another assay is S. aureus (MR). Put plainly: MIC, NCCLS methods. It is filed as cell-based. The settings on record: Staphylococcus aureus.
In the next assay the test system is S. aureus (MS). Put plainly: MIC, NCCLS methods. The class given is cell-based. The settings on record: Staphylococcus aureus.
For another assay, the system named is B. pertussis. Put plainly: MIC, NCCLS methods. It is filed as cell-based. The settings on record: N=10.
In a further assay the test system is Streptococcus spp. In words: MIC, NCCLS methods. The class given is cell-based.
For assay [4], the system named is methicillin susceptible Staphylococcus aureus. In words: NCCLS agar dilution MIC. The settings on record: Staphylococcus aureus. The class given is cell-based.
Another assay deals with Pseudomonas aeruginosa. Put plainly: MIC, strains from cystic fibrosis patients. The settings on record: by MIC.
Assay [5] concerns E. coli (TEM 10 transformant). Put plainly: NCCLS agar dilution MIC. The class given is cell-based. The settings on record: Escherichia coli.
The next assay has as its system Acinetobacter. Put plainly: Disk diffusion. The settings on record: 37 isolates selected as resistant to beta-lactams. The class given is cell-based. On the technique in general: Agar diffusion results depend on both activity and mobility in agar.
Another assay concerns K. pneumoniae. In words: E-test susceptibility. It is filed as cell-based, Klebsiella pneumoniae.
Assay [6] relates to E. coli (TEM 9 transformant). In words: NCCLS agar dilution MIC. The settings on record: Escherichia coli, n=1 per table line (three lines). It is filed as cell-based.
The subject of a further assay is P. aeruginosa. The class given is cell-based, Pseudomonas aeruginosa.
Assay [7] deals with inducible Enterobacteriaceae. Put plainly: SMART 2003, intraabdominal isolates. It is filed as cell-based.
The subject of another assay is Escherichia coli (ECO). In words: Broth microdilution. It is filed as cell-based. The settings on record: 2001. Background: Broth dilution looks for growth in wells or tubes with falling amounts of substance.
For assay [8], the system named is Pseudomonas putida clinical isolates. Put plainly: Agar dilution MIC. The class given is cell-based.
The subject of a further assay is Escherichia coli. In words: Vitek 2 susceptibility, urine isolates of children. It is filed as cell-based.
Assay [9] deals with Morganella morganii (ceftazidime R). In words: NCCLS agar dilution MIC. It is filed as cell-based. Further details: unit not given beside the values. The settings on record: n=2.
Another assay has as its system Klebsiella. In words: SMART 2003 Europe, microdilution. The class given is cell-based, Klebsiella spp. The settings on record: 341 isolates.
The next assay deals with K. oxytoca. Put plainly: E-test susceptibility. It is filed as cell-based, Klebsiella oxytoca.
The test system of another assay is Enterobacter spp. In words: E-test susceptibility. The class given is cell-based.
Assay [10] deals with E. coli. Put plainly: E-test susceptibility. It is filed as cell-based, Escherichia coli.
A further assay deals with Enterobacteriaceae. Put plainly: SMART 2003 Europe, microdilution. It is filed as cell-based. The settings on record: 1948 isolates.
Assay [11] has as its system P. aeruginosa strains from CF sputa. Put plainly: O-serotyping. The settings on record: exposure to 1/2–1/16 MIC (ceftazidime) or 1/2–1/8 MIC (ciprofloxacin). The class given is cell-based, Pseudomonas aeruginosa.
In assay [12] the test system is E. coli (OXA 5 transformant). Put plainly: NCCLS agar dilution MIC. It is filed as cell-based. The settings on record: Escherichia coli.
Assay [13] deals with E. coli. Put plainly: SMART 2003 Europe, microdilution. It is filed as cell-based, Escherichia coli. The settings on record: 1106 isolates.
Assay [14] relates to beta-haemolytic Streptococcus spp. In words: NCCLS broth microdilution MIC, 50 mg/L calcium. The class given is cell-based.
The test system of another assay is CA-MRSA. Put plainly: MIC, MBC. The class given is cell-based, Staphylococcus aureus.
In assay [15] the test system is viridans group streptococci (VgS) and Streptococcus bovis. In words: Broth microdilution and disk diffusion. The class given is cell-based.
Assay [16] has as its system viridans group Streptococcus spp. In words: NCCLS broth microdilution MIC, 50 mg/L calcium. It is filed as cell-based.
The subject of the next assay is MRSA. Put plainly: Disk diffusion. The class given is cell-based, Staphylococcus aureus. The settings on record: 200 isolates.
The test system of assay [17] is E. faecalis. In words: NCCLS broth microdilution MIC, 50 mg/L calcium. It is filed as cell-based.
For assay [18], the system named is E. faecium. In words: NCCLS broth microdilution MIC, 50 mg/L calcium. The class given is cell-based.
Another assay concerns S. aureus. In words: NCCLS broth microdilution MIC, 50 mg/L calcium. It is filed as cell-based.
The test system of a further assay is Enterococcus spp. In words: NCCLS broth microdilution MIC, 50 mg/L calcium. It is filed as cell-based.
A further assay relates to MDR-MRSA. In words: MIC, MBC. The class given is cell-based, Staphylococcus aureus. The settings on record: time kill, two strains.
The subject of assay [19] is coagulase-negative Staphylococci. Put plainly: NCCLS broth microdilution MIC, 50 mg/L calcium. The class given is cell-based.
Assay [20] concerns Citrobacter freundii (ceftazidime R). Put plainly: NCCLS agar dilution MIC. The class given is cell-based. The settings on record: n=6.

Turning to `CC[C@H]1OC(=O)[C@H](C)[C@@H](O[C@H]2C[C@@](C)(OC)[C@@H](O)[C@H](C)O2)[C@H](C)[C@@H](O[C@@H]2O[C@H](C)C[C@H](N(C)C)[C@H]2O)[C@](C)(O)C[C@@H](C)C(=O)[C@H](C)[C@@H](O)[C@]1(C)O` [Erythromycin A, erythromycin A], the MIC50 with S. progenies was over 64 µg/mL; with S. pneumoniae it was over 32 µg/mL; against H. influenzae, 4 µg/mL (≈ 5.45 µM); in the assay with E. faecalis [1] it was over 64 µg/mL; against M. catarrhalis, 0.12 µg/mL (≈ 0.164 µM); in [2], over 64 µg/mL. Also, the MIC50 against H. parainfluenzae was 2 µg/mL (≈ 2.73 µM); against E. faecium [3], over 64 µg/mL; with N meningitidis it was 0.12 µg/mL (≈ 0.164 µM); against S. aureus (MR), over 64 µg/mL; against S. aureus (MS), 0.25 µg/mL (≈ 0.341 µM); against Streptococcus spp, 0.06 µg/mL (≈ 0.0818 µM). This compound also registered an MIC50 in assay [4] of 0.25 µg/mL (≈ 0.341 µM). Further, the MIC90 in the assay on S. progenies was over 64 µg/mL; against S. pneumoniae, over 32 µg/mL; in the assay on H. influenzae it was 8 µg/mL (≈ 10.9 µM); in the assay on E. faecalis [1], over 64 µg/mL; with M. catarrhalis, 0.12 µg/mL (≈ 0.164 µM); in assay [2] it was over 64 µg/mL. In addition, the MIC90 was 8 µg/mL (≈ 10.9 µM) against H. parainfluenzae; over 64 µg/mL in the assay on E. faecium [3]; 0.25 µg/mL (≈ 0.341 µM) against N meningitidis; over 64 µg/mL against S. aureus (MR); over 64 µg/mL against S. aureus (MS); 0.12 µg/mL (≈ 0.164 µM) against Streptococcus spp. This compound yielded an MIC90 in assay [4] of over 64 µg/mL. The figures for the MIC range against A. haemolyticum and in the assay with B. pertussis were ≤0.015-0.03 ^* mg/L and 0.06 to 0.12 µg/mL, respectively.

Broadly, the MIC is the lowest concentration that inhibits growth of the organism. For `CC(C)(O/N=C(\C(=O)N[C@@H]1C(=O)N2C(C(=O)[O-])=C(C[n+]3ccccc3)CS[C@H]12)c1csc(N)n1)C(=O)O` [ceftazidime], the Susceptible isolates is 84% with Pseudomonas aeruginosa; 98% with K. pneumoniae (ICU); 100% with K. pneumoniae (non ICU); 100/100% in the assay on K. oxytoca (ICU); 100/100% in the assay on K. oxytoca (non ICU); 75% with Enterobacter spp (ICU). For the same compound, the Susceptible isolates with Enterobacter spp (non ICU) was determined as 89%; in the assay with E. coli [10] (ICU, SRGA breakpoints, tigecycline tentative S ≤2 μg/ml), 98%; in the assay on E. coli [10] (non ICU), 99%. For the same compound, the MIC in assay [5] is over 128 µg/mL; in assay [6], over 128 µg/mL; in assay [8], over 128 µg/mL; in assay [12] it was 64 µg/mL (≈ 117 µM). The same compound had a resistant isolates with Acinetobacter of 56.8%. Moreover, the resistant in the assay with P. aeruginosa amounted to 32%. Also, the “% susceptible” value in assay [7] (A/P (N = 200)) was determined as 59%; in [7] (EU (N = 354)) it was 75%; in assay [7] (LA (N=113)), 69%; in [7] (NA (N = 163)) it was 71%. For the same compound, the susceptible with Escherichia coli (ECO) (NAL-resistant isolates) turned out to be 93.3%; with Escherichia coli (ECO) (NAL-susceptible isolates) it was 99.0%. The susceptibility rate with Escherichia coli (paediatric surgical unit (PSU)) came out at 39%; in the assay on Escherichia coli (paediatric units (PU)), 95%. For the same compound, the “MIC (two isolates)” value in assay [9] is recorded as 16/64. In addition, the per cent susceptible was found to be 94% in the assay with Klebsiella, 92% in the assay with Enterobacteriaceae and 96% with E. coli [13]. The “change of agglutination type of nine monoagglutinable strains” value in assay [11] is “seven strains have become auto-agglutinable; also recorded: two strains have become polyagglutinable”.

As to `CCCCCCCCCC(=O)N[C@@H](Cc1c[nH]c2ccccc12)C(=O)N[C@H](CC(N)=O)C(=O)N[C@@H](CC(=O)O)C(=O)N[C@@H]1C(=O)NCC(=O)N[C@@H](CCCN)C(=O)N[C@@H](CC(=O)O)C(=O)N[C@H](C)C(=O)N[C@@H](CC(=O)O)C(=O)NCC(=O)N[C@H](CO)C(=O)N[C@@H]([C@H](C)CC(=O)O)C(=O)N[C@@H](CC(=O)c2ccccc2N)C(=O)O[C@@H]1C` [daptomycin], the “% S” value in [14] is 100.0%; with E. faecalis [17] it was 100.0%; in the assay on E. faecium [18] (VAN-G (77)), 97.4%; in the assay on E. faecium [18] (VAN-R), 100.0%; in the assay with S. aureus (OXA-R) it was 99.0%; with S. aureus (OXA-S), 99.9%. For the same compound, the “% S” value (in the assay with Enterococcus spp.; in [19] (OXA-R); in assay [19] (OXA-S)) was 100.0% each time. In addition, the MIC range in assay [14] is at most 0.06 to 0.5 µg/mL; in [16], at most 0.06 to 2 µg/mL; in the assay on E. faecalis [17], at most 0.06 to 4 µg/mL; in the assay on E. faecium [18] (VAN-G (77)), 1—8 mg/L; in the assay on E. faecium [18] (VAN-R) it was 1—4 mg/L; with S. aureus (OXA-R), 0.12 to 2 µg/mL. In addition, the MIC range in the assay on S. aureus (OXA-S) was at most 0.06 to 2 µg/mL; with Enterococcus spp., 0.5 to 4 µg/mL; in [19] (OXA-R), at most 0.06 to 1 µg/mL; in assay [19] (OXA-S), 0.12 to 1 µg/mL. The “time to 99.9% kill, as early as” value in the assay on CA-MRSA (against all strains (CA-MRSA and MDR-MRSA)) was found to be 4 h. Besides, the “Δ Log10 CFU/ml” value with CA-MRSA (time kill, two strains) is given as −3.88 Log10 CFU/ml; in the assay on MDR-MRSA, −4.12 Log10 CFU/ml. For the same compound, the “MIC90, range between species” value in assay [15] is recorded as 0.06 − 1 mg/L. This compound gave a Susceptible isolates in assay [15] (915 isolates, daptomycin breakpoint ≤ 1 mg/L) of 99.9%. For the same compound, the sensitivity result in the assay on MRSA is “All isolates were sensitive”.

Consider `C[C@H]1[C@H](NC(=O)/C(=N\OC(C)(C)C(=O)O)c2csc(N)n2)C(=O)N1S(=O)(=O)O` [aztreonam], for which the values for the MIC in assay [5] and in [12] were 32 µg/mL (≈ 73.5 µM) and 16 µg/mL (≈ 36.7 µM), respectively. Further, the MIC range in assay [20] fell in the range of 4 to 64 µg/mL. Besides, the “MIC (two isolates)” value in assay [9] is on record as 2/8.
